Reference: patent US20080056993A1, “Compositions, Methods and Kits Using Adenosine and Inosine in Combination for Diagnosis and Treatment” (ADENOBIO N.V., priority 2006, published 2008)

Assays:
anaesthetized rats = experiment: Carotid blood flow (CaBF) in anaesthetized rats, continuous i.v. infusion; assay type: in vivo, rat; settings: for effect of inosine alone on CaBF: 5 min i.v. infusion
Procedure: The study was conducted on 7 week old male Wistar rats weighing 250-300 g. Rats were anaesthetized with Inactin 100 mg/kg i.p. Inactin was preferred to other anaesthetics because of its moderate impact on blood pressure. Heparin-filled (100 IU/ml in saline) catheters were introduced into the left common carotid artery and into the left jugular vein for measurement of blood pressure and drug administration respectively. A flow probe was inserted around the right carotid artery for measurement of carotid blood flow (CaBF).
In a first series of experiments, adenosine was administered as a single agent to identify the dose providing maximal increase in carotid arterial blood flow (“adenosine max”). In this experiment, various concentrations of adenosine were infused continuously through the jugular vein catheter for 5 minutes, with concurrent measurement of carotid arterial blood flow.
A second series of experiments was performed to assess whether inosine could potentiate the effects on CaBF of a continuous intravenous infusion of adenosine at half adenosine max.
In each experiment, the effect on CaBF of (i) adenosine as a single agent, infused continuously for five minutes at adenosine max (0.1 mg/kg/min), (ii) adenosine as single agent infused continuously for five minutes at half adenosine max (0.05 mg/kg/min), and (iii) a composition containing a fixed dose of adenosine at half adenosine max (0.05 mg/kg/min) combined with inosine infused continuously for five minutes, was assessed. In separate experiments, inosine was included in the combined (“BIDOSINE”) composition in amounts required to achieve infusion at 0.1 mg/kg/min (A:I weight ratio of 1:2, FIG. 2A), 0.15 mg/kg/min (A:I weight ratio of 1:3, FIG. 2B), 0.2 mg/kg/min (A:I weight ratio of 1:4, FIG. 2C), and 0.25 mg/kg/min (A:I weight ratio of 1:5, FIG. 2D).

[1] = Maximal solubility in nonpyrogenic fluid suitable for parenteral infusion; assay type: physicochemical; settings: adenosine and inosine combined in a nonpyrogenic fluid suitable for parenteral infusion
Procedure: Combined in a nonpyrogenic, fluid suitable for parenteral infusion, maximal adenosine solubility is about 4 mg/ml and that of inosine 20 mg/ml. Concentrations approaching one or both of these maxima are convenient for unit dosage forms intended for long infusion times, since high concentrations of the nucleoside actives reduce the volume required to be infused. Typical embodiments include, for example, 250 ml containers (vials, etc.) containing 1,000 mg of adenosine with 100 mg, 1,000 mg, 2,000 mg, or even 3,000 mg, 4,000 mg, 5,000 mg, even 6,000 mg of inosine, with intermediate inosine amounts permissible.

## OC[C@H]1O[C@@H](n2cnc3c(O)ncnc32)[C@H](O)[C@@H]1O [inosine]
Anaesthetized rats; 6 min continuous i.v. infusion, adenosine 0.05 mg/kg/min, inosine 0.2 mg/kg/min, alone or combined (A:I 1:4), Mean±SEM, n=6
  increase in CaBF, percentage variation from baseline: 4±2%
Anaesthetized rats; inosine 0.3 mg/kg/min
  effect of inosine alone on CaBF: No response
Anaesthetized rats; inosine 1 mg/kg/min (10 times adenosine max)
  effect of inosine alone on CaBF: Modest decreases in CaBF
Anaesthetized rats; inosine between 1 to 10 mg/kg/min
  effect of inosine alone on CaBF: sharp slump and dose-dependent decrease in CaBF
[1]
  solubility: 20 mg/mL
